Here are results for 34 molecules from US20240262832A1, “SMALL MOLECULE MODULATORS OF GLUCOCEREBROSIDASE ACTIVITY AND USES THEREOF” (Vanqua Bio, Inc., priority 2021, published 2024).

One may read the EC50 as the midpoint of the concentration-response curve. Lower therefore signals an effect from little substance.

In this assay the target is T1, GCase (Homo sapiens, UniProt P04062).
T1 construct: endogenous in cells; host or cells: HeLa cells
T1 sequence (P04062 40-536): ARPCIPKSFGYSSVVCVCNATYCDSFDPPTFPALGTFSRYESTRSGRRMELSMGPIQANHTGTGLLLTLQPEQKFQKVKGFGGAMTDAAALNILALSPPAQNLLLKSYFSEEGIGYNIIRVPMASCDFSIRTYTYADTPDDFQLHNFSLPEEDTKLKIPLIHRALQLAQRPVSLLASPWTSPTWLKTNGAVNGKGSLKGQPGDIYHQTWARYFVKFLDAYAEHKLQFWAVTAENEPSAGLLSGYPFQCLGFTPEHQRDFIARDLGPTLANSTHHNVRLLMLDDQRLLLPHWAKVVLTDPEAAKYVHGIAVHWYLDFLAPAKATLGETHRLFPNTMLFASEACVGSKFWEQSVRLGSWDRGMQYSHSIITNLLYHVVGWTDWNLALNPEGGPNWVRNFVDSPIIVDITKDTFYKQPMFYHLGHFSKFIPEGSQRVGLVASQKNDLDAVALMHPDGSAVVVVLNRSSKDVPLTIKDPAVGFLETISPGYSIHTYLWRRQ
The assay is described as follows: activation of GCase in a live cell PFB assay in HELA cells. The assay is classed as cell-based.
On to `CC(C)c1cc(C(=O)N2CCCC(COc3ccccc3)C2)c(C(C)C)o1` (stereo not shown) [Compound 207], for which the EC50 is under 10 µM.
Take `O=C(C1CCCCC12CC2)N1CCCC(COc2ccccc2)C1` (stereo not shown) [Compound 209]: the EC50 was 10 to 50 µM.
`O=C(CC12CCC(CC1)C2)N1CCCC(COc2ccccc2)C1` (stereo not shown) [Compound 213] gave an EC50 of 10 to 50 µM.
`O=C(c1ccc(F)c(OC(F)(F)F)c1)N1CCCC(COc2ccccc2)C1` (stereo not shown) [Compound 217] yielded an EC50 of 10 to 50 µM.
Molecule `O=C(c1cc2cccc(Cl)c2s1)N1CCCC(COc2ccccc2)C1` (stereo not shown) [Compound 218] showed an EC50 of 10 to 50 µM.
Take `O=C([C@@H]1C[C@H]1c1ccc(F)cc1)N1CCCC(COc2ccccc2)C1` (stereo partly shown) [Compound 219]: the EC50 is 10 to 50 µM.
As for `O=C(c1ccn2c1CSCC2)N1CCCC(COc2ccccc2)C1` (stereo not shown) [Compound 220], the figure is 50 to 100 µM; as for `Cn1c(-c2ccc(F)cc2)nc2nc(C(=O)N3C[C@@H]4[C@@H](COc5cccnc5C(F)(F)F)[C@@H]4C3)cnc21` [Compound 223], over 100 µM; as for `Cn1c(-c2ccc(F)cc2)nc2ncc(C(=O)N3C[C@@H]4[C@@H](COc5cccnc5C(F)(F)F)[C@@H]4C3)nc21` [Compound 224], 10 to 50 µM.
As for `CC(=O)N1CCC(c2cc3nc(C(=O)N4C[C@@H]5[C@@H](COc6cccc(C(F)(F)F)n6)[C@@H]5C4)cnc3n2C)CC1` [Compound 225, 1-(4-(5-Methyl-2-((1R,5S,6r)-6-(((6-(trifluoromethyl)pyridin-2-yl)oxy)methyl)-3-azabicyclo[3.1.0]hexane-3-carbonyl)-5H-pyrrolo[2,3-b]pyrazin-6-yl)piperidin-1-yl)ethan-1-one], the EC50 was over 100 µM.
As for `O=C(c1cncc(-c2nncs2)n1)N1C[C@@H]2[C@@H](COc3cccc(C(F)(F)F)n3)[C@@H]2C1` [Compound 226, (1R,5S,6S)-3-[6-(1,3,4-thiadiazol-2-yl)pyrazine-2-carbonyl]-6-({[6-(trifluoromethyl)pyridin-2-yl]oxy}methyl)-3-azabicyclo[3.1.0]hexane], the figure is 10 to 50 µM.
Next, `Cn1c(-c2cccc(C(F)(F)F)n2)nc2nc(N3C[C@@H]4[C@@H](COc5cc(F)cc(F)c5)[C@@H]4C3)cnc21` [Compound 227, 5-((1R,5S,6r)-6-((3,5-difluorophenoxy)methyl)-3-azabicyclo[3.1.0]hexan-3-yl)-1-methyl-2-(6-(trifluoromethyl)pyridin-2-yl)-1H-imidazo[4,5-b]pyrazine]: under 10 µM.
As for `Fc1nccc(OC[C@@H]2[C@H]3CN(c4cnc5cnn(C6COC6)c5n4)C[C@@H]23)c1F` [Compound 228], the figure is 10 to 50 µM; as for `COCCn1ncc2ncc(N3C[C@@H](C)C[C@@H](COc4cccnc4C(F)(F)F)C3)nc21` [Compound 230a, 1-(2-Methoxyethyl)-6-((3S,5R)-3-methyl-5-(((2-(trifluoromethyl)pyridin-3-yl)oxy)methyl)piperidin-1-yl)-1H-pyrazolo[3,4-b]pyrazine], 10 to 50 µM; as for `COCCn1ncc2ncc(N3C[C@@H](C)C[C@H](COc4cccnc4C(F)(F)F)C3)nc21` [Compound 230b, 1-(2-Methoxyethyl)-6-((3S,5S)-3-methyl-5-(((2-(trifluoromethyl)pyridin-3-yl)oxy)methyl)piperidin-1-yl)-1H-pyrazolo[3,4-b]pyrazine], under 10 µM.
The molecule `CC(C)c1cc(C(=O)N2CC(COc3cccnc3C(F)(F)F)CCC2C)[nH]n1` (stereo not shown) [Compound 231, (3-isopropyl-1H-pyrazol-5-yl)(2-methyl-5-(((2-(trifluoromethyl)pyridin-3-yl)oxy)methyl)piperidin-1-yl)methanone] came in with an EC50 of under 10 µM.
In the case of `CC1CCC(COc2cccnc2C(F)(F)F)CN1c1cncc(-c2nncs2)n1` (stereo not shown) [Compound 232, 2-[2-Methyl-5-({[2-(trifluoromethyl)pyridin-3-yl]oxy}methyl)piperidin-1-yl]-6-(1,3,4-thiadiazol-2-yl)pyrazine], the half-maximal effective concentration (EC50) was under 10 µM.
For `CC(C)c1cc(C(=O)N2C[C@@H](C)C[C@H](COc3cccnc3C(F)(F)F)C2)[nH]n1` [Compound 234b, (3-Isopropyl-1H-pyrazol-5-yl)((3S,5S)-3-methyl-5-(((2-(trifluoromethyl)pyridin-3-yl)oxy)methyl)piperidin-1-yl)methanone], the EC50 is 10 to 50 µM.
As for `COc1ccccc1OCC1CCCN(C(=O)c2c(-c3ccccc3)n(C)c3nccnc23)C1` (stereo not shown) [Compound 235, (3-((2-Methoxyphenoxy)methyl)piperidin-1-yl)(5-methyl-6-phenyl-5H-pyrrolo[2,3-b]pyrazin-7-yl)methanone], the figure is 10 to 50 µM; as for `Cn1c(-c2ccccc2)c(C(=O)N2CCCC(COc3ccccc3OC(F)(F)F)C2)c2nccnc21` (stereo not shown) [Compound 236, (5-Methyl-6-phenyl-5H-pyrrolo[2,3-b]pyrazin-7-yl)(3-((2-(trifluoromethoxy)phenoxy)methyl)piperidin-1-yl)methanone], 10 to 50 µM; as for `CN(CC1CCCN(c2cnc3cnn(CC(F)F)c3n2)C1)c1cccc(C(F)(F)F)n1` (stereo not shown) [Compound 239, N-((1-(1-(2,2-Difluoroethyl)-1H-pyrazolo[3,4-b]pyrazin-6-yl)piperidin-3-yl)methyl)-N-methyl-6-(trifluoromethyl)pyridin-2-amine], 10 to 50 µM.
As for `O=C(c1cnc(-c2nncs2)cn1)N1C[C@@H]2[C@@H](COc3cccc(C(F)(F)F)n3)[C@@H]2C1` [Compound 247, (1R,5S,6S)-3-[5-(1,3,4-Thiadiazol-2-yl)pyrazine-2-carbonyl]-6-({[6-(trifluoromethyl)pyridin-2-yl]oxy}methyl)-3-azabicyclo[3.1.0]hexane], the figure is over 100 µM; as for `FC(F)(F)COCCn1ncc2ncc(N3CCCC(COc4cccnc4C(F)(F)F)C3)nc21` (stereo not shown) [Compound 248, 1-(2-(2,2,2-Trifluoroethoxy)ethyl)-6-(3-(((2-(trifluoromethyl)pyridin-3-yl)oxy)methyl)piperidin-1-yl)-1H-pyrazolo[3,4-b]pyrazine], under 10 µM.
As for `Cc1ccccc1OCC1CCCN(C(=O)c2c(C3CC3)n(-c3ccccc3)c3nccnc23)C1` (stereo not shown) [Compound 255, (6-cyclopropyl-5-phenyl-5H-pyrrolo[2,3-b]pyrazin-7-yl)(3-((o-tolyloxy)methyl)piperidin-1-yl)methanone], the figure is 10 to 50 µM; as for `Cc1cnc2c(C(=O)N3CCCC(COc4ccccc4C)C3)c(-c3ccccc3)n(C)c2n1` (stereo not shown) [Compound 257, (3,5-Dimethyl-6-phenyl-5H-pyrrolo[2,3-b]pyrazin-7-yl)(3-((o-tolyloxy)methyl)piperidin-1-yl)methanone], 50 to 100 µM; as for `O=C(N1CCCC(COc2ncccc2C(F)(F)F)C1)N1CCOC(Cc2ccccc2)C1` (stereo not shown) [Compound 258, (2-Benzylmorpholino)(3-(((3-(trifluoromethyl)pyridin-2-yl)oxy)methyl)piperidin-1-yl)methanone], 50 to 100 µM.
The molecule `FC(F)Cn1ncc2ncc(N3CC4CC4(COc4cccnc4C(F)(F)F)C3)nc21` (stereo not shown) [Compound 260, 3-[1-(2,2-Difluoroethyl)-1H-pyrazolo[3,4-b]pyrazin-6-yl]-1-({[2-(trifluoromethyl)pyridin-3-yl]oxy}methyl)-3-azabicyclo[3.1.0]hexane] displayed an EC50 of 10 to 50 µM.
`O=C(c1ccc2cc[nH]c2c1)N1CC2CC2(COc2cccnc2C(F)(F)F)C1` (stereo not shown) [Compound 261, 6-[1-({[2-(Trifluoromethyl)pyridin-3-yl]oxy}methyl)-3-azabicyclo[3.1.0]hexane-3-carbonyl]-1H-indole] showed an EC50 of over 100 µM.
In turn, `Cc1cnc2c(n1)c(C(=O)N1CCCC(COc3ccccc3C)C1)c(-c1ccccc1)n2C` (stereo not shown) [Compound 263, (2,5-dimethyl-6-phenyl-5H-pyrrolo[2,3-b]pyrazin-7-yl)(3-((o-tolyloxy)methyl)piperidin-1-yl)methanone] gave an EC50 of 10 to 50 µM.
As for `COc1cnc2c(n1)c(C(=O)N1CCCC(COc3ccccc3C)C1)c(-c1ccccc1)n2C` (stereo not shown) [Compound 264, (2-Methoxy-5-methyl-6-phenyl-5H-pyrrolo[2,3-b]pyrazin-7-yl)(3-((o-tolyloxy)methyl)piperidin-1-yl)methanone], the figure is 10 to 50 µM; as for `C[C@@H](Oc1ccccc1C(F)(F)F)[C@H]1CCCN(c2cnc3cnn(CC(F)F)c3n2)C1` [Compound 266a, 1-(2,2-Difluoroethyl)-6-((S)-3-((R)-1-(2-(trifluoromethyl)phenoxy)ethyl)piperidin-1-yl)-1H-pyrazolo[3,4-b]pyrazine], 10 to 50 µM.
As for `C[C@H](Oc1ccccc1C(F)(F)F)[C@@H]1CCCN(c2cnc3cnn(CC(F)F)c3n2)C1` [Compound 266b, 1-(2,2-difluoroethyl)-6-((R)-3-((S)-1-(2-(trifluoromethyl)phenoxy)ethyl)piperidin-1-yl)-1H-pyrazolo[3,4-b]pyrazine], the figure is 10 to 50 µM; as for `C[C@@H]1CC[C@H](COc2cccc(C(F)(F)F)n2)CN1c1cnc2cnn(CC(F)F)c2n1` [Compound 269, 1-(2,2-Difluoroethyl)-6-((2R,5S)-2-methyl-5-(((6-(trifluoromethyl)pyridin-2-yl)oxy)methyl)piperidin-1-yl)-1H-pyrazolo[3,4-b]pyrazine], over 100 µM; as for `C[C@@H]1CC[C@H](COc2ccc(C(F)(F)F)nc2)CN1c1cnc2cnn(CC(F)F)c2n1` [Compound 272, 1-(2,2-Difluoroethyl)-6-((2R,5S)-2-methyl-5-(((6-(trifluoromethyl)pyridin-3-yl)oxy)methyl)piperidin-1-yl)-1H-pyrazolo[3,4-b]pyrazine], 10 to 50 µM.
